Test results reported in paper PMC9232612, “A phase 1b randomised controlled trial of a glucagon-like peptide-1 and glucagon receptor dual agonist IBI362 (LY3305677) in Chinese patients with type 2 diabetes” (Nature Communications, 2022).
Values joined by “and” are separate entries in the source; they are usually repeats but may differ in a detail not shown here. Equal values may be shown once.

Experiments:
Format in all cases: in vivo, human
[1] = test system: Chinese patients with T2D; experiment: Fasting plasma glucose (FPG); details: MMRM; for Change from baseline in fasting plasma glucose, LS mean / Change from baseline in fasting plasma glucose, LS mean (SE): n=8; for Change from baseline in fasting plasma glucose, LS mean (SE) / Fasting plasma glucose: ETD versus placebo, LS mean (90% CI): week 12
Description: (§1) HbA1c (2200101, Bio-Rad, USA), blood glucose (05168791190, Roche Diagnostics, Germany), insulin (12017547122, Roche Diagnostics, Germany), C peptide (03184897190, Roche Diagnostics, Germany), total GLP-1 (GLP-1 [7–36] amide and its metabolite, GLP-1 [9–36] amide, 10-1278-01, Mercodia AB, Sweden) and OXM (AL-139, AnshLabs, USA) tests were performed according to the manufactures’ instruction manuals in a central laboratory (KingMed Diagnostics, Guangzhou, China). HbA1c was measured using a Bio-rad D-100 Haemoglobin Testing System (Bio-rad). Blood glucose was measured using a Roche Cobas c702 analyser (Roche Diagnostics). Insulin and C peptide were measured using a Roche […] analyser (Roche Diagnostics). GLP-1 and OXM were measured using a Tecan Infinite M Plex microplate reader (TECAN).
(§2) Standard non-compartmental pharmacokinetics methods were used to analyze IBI362 plasma concentration data using Pkanalix 2020R1 (Lixoft, Antony, France). Secondary efficacy outcomes included change from baseline to week 12 in HbA1c, fasting plasma glucose (FPG), fasting insulin levels, change from baseline to week 12 in post-mixed-meal tolerance test (post-MTT) glucose, insulin, C peptide, GLP-1 and OXM levels, as well as seven-point self-measured blood glucose (SMBG) profile.
The analyses for change from baseline in HbA1c, FPG, post-MTT glucose AUC0–4 h and body weight were performed using the mixed-effect model for repeated measures (MMRM) with least-squares means and standard error provided. The MMRM included the corresponding baseline value, treatment, visit and treatment-by-visit as fixed effects and patient as a random effect. Mean change or mean percent change from baseline were analysed using a restricted maximum likelihood (REML)‐based repeated measures approach in combination with the Newton Raphson Algorithm. The fix effect of visit was fitted as a repeated effect and an unstructured covariance matrix was used. In case of non-converge, matrix like Variance Components and Compound Symmetry will be tested in a subsequent order until model‐convergence is achieved. The Kenward-Roger degree of freedom was used in estimating fixed effects. No missing data imputation was conducted. For HbA1c, FPG and body weight, point estimate of treatment difference versus placebo and 90% CI were provided for each IBI362 dose group and the dulaglutide group, with nominal p values.

Waist circumference = details: for Change from baseline to week 12 in waist circumference, individual: single patients
Description: (§3) Exploratory outcomes included change from baseline in body weight, waist circumference, body-mass index (BMI) and change in homeostatic model assessment of β-cell function (HOMA-β) and insulin resistance (HOMA-IR).

[2] = test system: Chinese patients with T2D; experiment: Mixed-meal tolerance test (MTT): C peptide
Description: as §1, §2
IBI362 Innovent Biologics (Suzhou) Co., Ltd. CIBI362A101
3. Standard meal test (MTT) collection measures included: insulin, C-peptide, plasma glucose, glucagon, endogenous OXM, and endogenous GLP-1. The sampling points include: fasting, 30 min, 1h, 2h, 3h and 4h.
A total of 9 mL blood will be collected from each blood collection point. See the manual of the central laboratory for the detailed operation process. Fasting state refers to fasting for 10 hours. [ The standard meal is
instant noodles. The master Kang roast beef noodles (bucket noodles) purchased by the sponsor in a unified manner are removed from the oil bag. The noodles are soaked in boiled water and then removed. The seasoning
bag is added and mixed well. The time is counted from the first bite of eating. The noodles are eaten within 10 minutes, and 200 mL of water is drunk; or the instant noodles are directly opened with 200 mL of boiled
water to ensure that the noodles are eaten and the water or soup is drunk]. Visit days when MTT test is performed: 1 day prior to Cycle 1 administration, Day 80 (D80).
4. If the patient experiences drug-related adverse events during dose escalation and meets the protocol-specified tolerance criteria, dose adjustment is required at the investigator's discretion, and a standard meal test
should be performed 48 hours after the first dose after dose adjustment.
● Test by central laboratory

[3] = test system: Chinese patients with T2D; experiment: Homeostatic model assessment of insulin resistance (HOMA-IR)
Description: as §3

CC(C)C[C@H](NC(=O)[C@H](CC(C)C)NC(=O)[C@H](Cc1c[nH]c2ccccc12)NC(=O)[C@H](CCC(=O)O)NC(=O)[C@@H](NC(=O)[C@H](Cc1ccccc1)NC(=O)[C@H](CCC(=O)O)NC(=O)[C@H](CCCCNC(=O)COCCOCCNC(=O)COCCOCCNC(=O)CC[C@H](NC(=O)CCCCCCCCCCCCCCCCCCC(=O)O)C(=O)O)NC(=O)[C@H](C)NC(=O)[C@H](CCCCN)NC(=O)[C@H](CCCCN)NC(=O)[C@H](CCC(=O)O)NC(=O)[C@H](CC(=O)O)NC(=O)[C@H](CC(C)C)NC(=O)[C@H](Cc1ccc(O)cc1)NC(=O)[C@H](CCCCN)NC(=O)[C@H](CO)NC(=O)[C@H](Cc1ccc(O)cc1)NC(=O)[C@H](CC(=O)O)NC(=O)[C@H](CO)NC(=O)[C@@H](NC(=O)[C@H](Cc1ccccc1)NC(=O)[C@@H](NC(=O)CNC(=O)[C@H](CCC(N)=O)NC(=O)C(C)(C)NC(=O)[C@@H](N)Cc1c[nH]cn1)[C@@H](C)O)[C@@H](C)O)C(C)C)C(=O)N[C@@H](CCC(=O)O)C(=O)NCC(=O)NCC(=O)N1CCC[C@H]1C(=O)N[C@@H](CO)C(=O)N[C@@H](CO)C(=O)NCC(N)=O [IBI362]
Change from baseline in fasting plasma glucose, LS mean ([1]; week 4, 3.0 mg cohort): -2.29 mmol/L
Change from baseline in fasting plasma glucose, LS mean ([1]; week 4, 4.5 mg cohort): -2.47 mmol/L
Change from baseline in fasting plasma glucose, LS mean ([1]; week 4, 6.0 mg cohort): -3.03 mmol/L
Change from baseline in fasting plasma glucose, LS mean ([1]; week 8, 3.0 mg cohort): -2.95 mmol/L
Change from baseline in fasting plasma glucose, LS mean ([1]; week 8, 4.5 mg cohort): -3.38 mmol/L
Change from baseline in fasting plasma glucose, LS mean ([1]; week 8, 6.0 mg cohort): -3.50 mmol/L
Change from baseline in fasting plasma glucose, LS mean (SE) ([1]; 3.0 mg cohort): −3.38 (0.49) mmol/L and −3.38 mmol/L
Fasting plasma glucose: ETD versus placebo, LS mean (90% CI) ([1]; 3.0 mg cohort): -0.85 mmol/L
Change from baseline in fasting plasma glucose, LS mean (SE) ([1]; 4.5 mg cohort): -3.82 mmol/L
Fasting plasma glucose: ETD versus placebo, LS mean (90% CI) ([1]; 4.5 mg cohort): -1.30 mmol/L
Change from baseline in fasting plasma glucose, LS mean (SE) ([1]; 6.0 mg cohort): -4.07 mmol/L
Change from baseline to week 12 in waist circumference, mean (Waist circumference; 3.0 mg cohort, n=7): -0.5 cm
Change from baseline to week 12 in waist circumference, mean (Waist circumference; 4.5 mg cohort, n=5): -3.0 cm
Change from baseline to week 12 in waist circumference, individual (Waist circumference; 3.0 mg cohort, n=7): -4.4 cm and -0.2 cm and -4.0 cm and -1.0 cm and 3.7 cm and 3.5 cm
Change from baseline to week 12 in waist circumference, individual (Waist circumference; 4.5 mg cohort, n=5): -4.5 cm and -1.8 cm and -2.1 cm and -2.2 cm and -4.2 cm
Change from baseline to week 12 in waist circumference, individual (Waist circumference; 6.0 mg cohort, n=8): -4.7 cm and -2.5 cm and -1.0 cm and -7.5 cm and -5.1 cm and -13.3 cm and -1.5 cm and -2.9 cm
C peptide during MTT, mean ([2]; week 12, 0 min, 3.0 mg cohort, n=7): 2.67 ng/mL
C peptide during MTT, mean ([2]; week 12, 0 min, 4.5 mg cohort, n=5): 2.81 ng/mL
C peptide during MTT, mean ([2]; week 12, 0 min, 6.0 mg cohort, n=8): 2.79 ng/mL
C peptide during MTT, mean ([2]; week 12, 30 min, 3.0 mg cohort, n=7): 3.41 ng/mL
C peptide during MTT, mean ([2]; week 12, 30 min, 4.5 mg cohort, n=5): 3.46 ng/mL
C peptide during MTT, mean ([2]; week 12, 30 min, 6.0 mg cohort, n=8): 3.54 ng/mL
C peptide during MTT, mean ([2]; week 12, 60 min, 3.0 mg cohort, n=7): 5.15 ng/mL
C peptide during MTT, mean ([2]; week 12, 60 min, 4.5 mg cohort, n=5): 4.85 ng/mL
C peptide during MTT, mean ([2]; week 12, 60 min, 6.0 mg cohort, n=8): 5.24 ng/mL
C peptide during MTT, mean ([2]; week 12, 120 min, 3.0 mg cohort, n=7): 8.22 ng/mL
C peptide during MTT, mean ([2]; week 12, 120 min, 4.5 mg cohort, n=5): 6.34 ng/mL
C peptide during MTT, mean ([2]; week 12, 120 min, 6.0 mg cohort, n=8): 8.25 ng/mL
C peptide during MTT, mean ([2]; week 12, 180 min, 3.0 mg cohort, n=7): 7.74 ng/mL
C peptide during MTT, mean ([2]; week 12, 180 min, 4.5 mg cohort, n=5): 7.22 ng/mL
C peptide during MTT, mean ([2]; week 12, 180 min, 6.0 mg cohort, n=8): 7.50 ng/mL
C peptide during MTT, mean ([2]; week 12, 240 min, 3.0 mg cohort, n=7): 5.91 ng/mL
C peptide during MTT, mean ([2]; week 12, 240 min, 4.5 mg cohort, n=5): 5.24 ng/mL
C peptide during MTT, mean ([2]; week 12, 240 min, 6.0 mg cohort, n=8): 5.41 ng/mL
Change from baseline to week 12 in HOMA-IR, mean ([3]; 3.0 mg cohort, n=7): -2.1
Change from baseline to week 12 in HOMA-IR, mean ([3]; 4.5 mg cohort, n=5): -1.5
